From patent US8957082B2, “Tetrahydropyrrolopyrimidinediones and their use in therapy” (Chiesi Farmaceutici S.p.A, priority 2006, dated 2015)

What was measured:
[1] = biological target: T1, human neutrophil elastase (HNE) (Homo sapiens, UniProt P08246); assay: HNE induced lung haemorrhage in the rat; assay type: in vivo; conditions: for reducing the quantity of blood haemorrhaged relative to control: male Sprague Dawley rats, compound dosed locally to the lung (i.t. or i.n.) before HNE, blood in BALF one hour post HNE challenge
T1 sequence (P08246 30-267): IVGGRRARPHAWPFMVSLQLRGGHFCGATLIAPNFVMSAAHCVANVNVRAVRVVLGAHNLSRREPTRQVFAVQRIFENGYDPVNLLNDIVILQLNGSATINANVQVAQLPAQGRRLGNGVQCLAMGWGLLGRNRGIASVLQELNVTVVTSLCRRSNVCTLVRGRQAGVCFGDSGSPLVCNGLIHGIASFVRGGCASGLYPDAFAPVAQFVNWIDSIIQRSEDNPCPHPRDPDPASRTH
From the text: HNE Induced Lung Haemorrhage in the Rat
Instillation of human neutrophil elastase (HNE) into rat lung causes acute lung damage. The extent of this injury can be assessed by measuring lung haemorrhage. Male Sprague Dawley rats (175-220 g) were obtained from Harlan UK Ltd., full barrier-bred and certified free from specified micro-organisms on receipt. Animals were weighed and randomly assigned to treatment groups (7-12 animals per group).
The vehicle used was 1% DMSO/Saline. Inhibitors were dissolved in 1% DMSO before the addition of 0.9% saline.
Animals in each study used to determine the efficacy of the elastase inhibitors delivered locally to the lung by a variety of routes. Rats were anaesthetised with the inhaled anaesthetic isoflurane (4%) when the dose was given from 30 minutes to 6 h prior to human neutrophil elastase ([…]) administration or terminally anaesthetised with hypnorm:hypnovel:water (1.5:1:2 at 2.7 ml/kg) when the predose was given at less than 30 minutes prior to HNE administration and dosed either intratracheally (i.t.) by transoral administration using a Penn Century microsprayer or intranasally (i.n.) by dropping the fluid on to the nares. Animals either received vehicle or compound at a dose volume of 0.5 ml/kg.
Animals that had been allowed to recover after dosing were terminally anaesthetised with hypnorm:hypnovel:water (1.5:1:2 at 2.7 ml/kg). Once sufficiently anaesthetised, HNE (600 units/ml) or sterile saline was administered by transoral tracheal instillation at a volume of 100 μl using a Penn Century microsprayer. Animals were kept warm in a temperature controlled box and given top up doses of anaesthetic as required to ensure continuous anaesthesia until termination.
Animals were sacrificed (0.5 ml to 1 ml sodium pentobarbitone) one hour post HNE challenge. The trachea was exposed and a small incision made between two tracheal rings allowing a cannula (10 gauge, O.D. 2-10 mm, Portex Ltd.) to be inserted approximately 2 cm into the trachea towards the lung. This was secured into place with a cotton ligature. The lungs were then lavaged (BAL) three times with fresh 4 ml aliquots of heparinised (10 units/ml) phosphate buffered saline (PBS). The resultant BALF was kept on ice until it was centrifuged.
The BALF was centrifuged at 1000 r.p.m. for 10 minutes in a centrifuge cooled to between 4 and 10° C. The supernatant was discarded and the cell pellet resuspended in 1 ml 0.1% CETAB/PBS to lyse the cells. Cell lysates were frozen until spectrophotometric analysis for blood content could be made. Standards were prepared by making solutions of whole rat blood in 0.1% CETAB/PBS.
Once defrosted 100 μl of each lysed cell suspension was placed into a separate well of a 96 well flat bottomed plate. All samples were tested in duplicate and 100 μl 0.1% CETAB/PBS was included on the plate as a blank. The OD of the contents of each well was measured at 415 nm using a spectramax 250 (Molecular devices).
A standard curve was constructed by measuring the OD (at 415 nm) of different concentrations of blood in 0.1% CETAB/PBS (30, 10, 7, 3, 1, 0.3, 0.1 μl/ml).
The amount of blood in each experimental sample was calculated by comparison to the standard curve. Data were then analysed as below:
1) The mean OD for duplicates was calculated
2) The value for the blank was subtracted from the value for all other samples
3) Data were assessed to evaluate the normality of distribution.

[2] = biological target: T2, human leukocyte elastase (HNE) (Homo sapiens, UniProt P08246); assay: HNE inhibitory activity (fluorescent peptide substrate / fluorescently labelled elastin assays); assay type: biochemical; conditions: which of the two substrate assays is not stated
T2 construct: purchased Sigma E8140
T2 sequence (P08246 30-247 limits assumed): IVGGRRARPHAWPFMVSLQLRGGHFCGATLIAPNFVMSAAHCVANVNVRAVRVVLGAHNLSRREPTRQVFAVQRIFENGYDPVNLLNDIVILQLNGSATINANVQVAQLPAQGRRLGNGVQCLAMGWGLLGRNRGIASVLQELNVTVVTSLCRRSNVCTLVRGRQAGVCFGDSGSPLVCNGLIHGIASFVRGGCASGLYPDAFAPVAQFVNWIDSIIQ
Method: Compounds of the invention were tested for their HNE inhibitory activity.
Fluorescent Peptide Substrate
Assays were performed in 96-well plates at a total assay volume of 100 μl. The final concentration of the enzyme (human leukocyte elastase, Sigma E8140) was 0.00036 units/well. A peptide substrate (MeO-Suc-Ala-Ala-Pro-ValAMC, Calbiochem #324745) was used, at the final concentration of 100 μM. The final concentration of DMSO was 1% in the assay buffer (0.05M Tris.HCl, pH 7.5, 0.1M NaCl; 0.1M CaCl2; 0.0005% brij-35).
The enzymatic reaction was started by adding the enzyme. The enzymatic reaction was performed at RT and after 30 mins stopped by adding 50 μl soybean trypsin inhibitor (Sigma T-9003) at a final concentration of 50 μg/well. Fluorescence was read on the FLEXstation (Molecular Devices) using 380 nm excitation and 460 nm emission filters. […] The results are means of two independent experiments, each performed in duplicate.
Using Fluorescently Labelled Elastin
Assays were performed in 96-well plate at a total assay volume of 100 μl. The final concentration of the enzyme (human leukocyte elastase, Sigma E8140) was 0.002 units/well. […]
The enzymatic reaction was started by adding the enzyme. The enzymatic reaction was performed at RT and read after 120 minutes. Fluorescence was read on the FLEXstation (Molecular Devices) using 485 nm excitation and 530 nm emission filters. […]

| SMILES | reducing the quantity of blood haemorrhaged relative to control [1] | IC50 [2] [nM] | reduction in haemorrhage relative to control ([1]; rat, 30 mg/kg it, 1 hour prior to HNE, statistically significant) [%] |
| --- | --- | --- | --- |
| CN(CCCN1CC2=C(C1=O)[C@@H](c1ccc(C#N)cc1)NC(=O)N2c1cccc(C(F)(F)F)c1)CCCN1CC2=C(C1=O)[C@@H](c1ccc(C#N)cc1)NC(=O)N2c1cccc(C(F)(F)F)c1 [Example 17] | effective in reducing the quantity of blood haemorrhaged | – | – |
| N#Cc1ccc([C@H]2NC(=O)N(c3cccc(C(F)(F)F)c3)C3=C2C(=O)N(CCCNCCCN2CC4=C(C2=O)[C@@H](c2ccc(C#N)cc2)NC(=O)N4c2cccc(C(F)(F)F)c2)C3)cc1.O=CO [Example 18] | effective in reducing the quantity of blood haemorrhaged | – | – |
| CN(CCCN1CC2=C(C1=O)[C@@H](c1ccc(I)cc1)NC(=O)N2c1cccc(C(F)(F)F)c1)CCCN1CC2=C(C1=O)[C@@H](c1ccc(I)cc1)NC(=O)N2c1cccc(C(F)(F)F)c1 [Example 23] | – | 50 to 500 | – |
| CCN1CC2=C(C1=O)[C@@H](c1ccc(C#N)cc1)N(CC(=O)NCCNC(=N)NCCNC(=O)CN1C(=O)N(c3cccc(C(F)(F)F)c3)C3=C(C(=O)N(CC)C3)[C@H]1c1ccc(C#N)cc1)C(=O)N2c1cccc(C(F)(F)F)c1 [Example 30] | effective in reducing the quantity of blood haemorrhaged | – | – |
| C[N+](C)(CCCN1CC2=C(C1=O)[C@@H](c1ccc(C#N)cc1)NC(=O)N2c1cccc(C(F)(F)F)c1)CCCN1CC2=C(C1=O)[C@@H](c1ccc(C#N)cc1)NC(=O)N2c1cccc(C(F)(F)F)c1.[I-] [Example 32] | effective in reducing the quantity of blood haemorrhaged | – | 67 |
| C[N+](C)(CCCN1CC2=C(C1=O)[C@@H](c1ccc(C#N)cc1)N(CC(=O)O)C(=O)N2c1cccc(C(F)(F)F)c1)CCCN1CC2=C(C1=O)[C@@H](c1ccc(C#N)cc1)N(CC(=O)O)C(=O)N2c1cccc(C(F)(F)F)c1.O=C([O-])C(F)(F)F [Example 41] | effective in reducing the quantity of blood haemorrhaged | – | – |
| N#Cc1ccc([C@H]2NC(=O)N(c3cccc(C(F)(F)F)c3)C3=C2C(=O)N(CCN2CCN(CCN4CC5=C(C4=O)[C@@H](c4ccc(C#N)cc4)NC(=O)N5c4cccc(C(F)(F)F)c4)C2=N)C3)cc1 [Example 43] | effective in reducing the quantity of blood haemorrhaged | – | – |
| C[N+](CCCN1CC2=C(C1=O)[C@@H](c1ccc(C#N)cc1)NC(=O)N2c1cccc(C(F)(F)F)c1)(CCCN1CC2=C(C1=O)[C@@H](c1ccc(C#N)cc1)NC(=O)N2c1cccc(C(F)(F)F)c1)CC(=O)[O-] [Example 49] | effective in reducing the quantity of blood haemorrhaged | – | – |
| C[N+](C)(CCCN1CC2=C(C1=O)[C@@H](c1ccc(C#N)cc1)NC(=O)N2c1cccc(C(F)(F)F)c1)CCCN1CC2=C(C1=O)[C@@H](c1ccc(C#N)cc1)NC(=O)N2c1cccc(C(F)(F)F)c1.O=C[O-] [Example 59] | effective in reducing the quantity of blood haemorrhaged | – | – |
| C[N+](C)(CCCCN1CC2=C(C1=O)[C@@H](c1ccc(C#N)cc1)NC(=O)N2c1cccc(C(F)(F)F)c1)CCCOc1ccccc1.[Br-] [Example 61] | effective in reducing the quantity of blood haemorrhaged | – | – |
| C[N+](CCCCN1CC2=C(C1=O)[C@@H](c1ccc(C#N)cc1)NC(=O)N2c1cccc(C(F)(F)F)c1)(CCCOc1ccccc1)CCCOc1ccccc1.O=C[O-] [Example 64] | effective in reducing the quantity of blood haemorrhaged | – | – |
